Data as given in patent US20070259888A1, “Novel Compounds” (ASTRAZENECA AB, priority 2006, published 2007).

Tests used:
[1] = target: T1, hM1 (human Muscarinic receptor subtype 1) (Homo sapiens, UniProt P11229); assay: Human M1 calcium mobilization FLIPR assay; assay type: cell-based; conditions: CHO cells expressing hM1, FLIPR; for EC50: read-out: hM1EC50; for Emax: read-out: hM1Emax
T1 construct: expressed in transfected cells; host or cells: CHO cells (chinese hamster ovary cells, ATCC)
T1 sequence (P11229 1-460): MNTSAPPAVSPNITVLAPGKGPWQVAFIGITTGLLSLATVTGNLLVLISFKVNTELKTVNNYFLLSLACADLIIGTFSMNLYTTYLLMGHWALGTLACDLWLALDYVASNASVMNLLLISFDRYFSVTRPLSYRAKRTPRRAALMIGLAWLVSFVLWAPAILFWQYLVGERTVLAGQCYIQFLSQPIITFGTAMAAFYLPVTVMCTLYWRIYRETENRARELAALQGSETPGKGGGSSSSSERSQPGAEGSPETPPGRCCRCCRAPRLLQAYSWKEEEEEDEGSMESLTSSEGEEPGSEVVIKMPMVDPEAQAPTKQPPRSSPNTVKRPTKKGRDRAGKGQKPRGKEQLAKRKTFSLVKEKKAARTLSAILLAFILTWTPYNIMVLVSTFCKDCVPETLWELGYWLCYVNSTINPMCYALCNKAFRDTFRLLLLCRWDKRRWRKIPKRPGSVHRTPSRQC
Description: The compound activity in the present invention (EC50 or IC50) was measured using a 384 plate-based imaging assay that monitors drug induced intracellular Ca^2+ release in whole cells. Activation of hM1 (human Muscarinic receptor subtype 1, gene bank access NM_000738), rM1 (rat Muscarinic receptor subtype 1, gene bank access NM_080773), hM3 (human Muscarinic receptor subtype 3, gene bank access NM_000740NM_000740) and hM5 (human Muscarinic receptor subtype 5, gene bank access NM_0121258) receptors expressed in CHO cells (chinese hamster ovary cells, ATCC) was quantified in a Molecular Devices FLIPR II™ instrument as an increase in fluorescent signal. Inhibition of hM3 and hM5 by compounds was determined by the decrease in fluorescent signal in response to 2 nM acetylcholine activation.
CHO cells were plated in 384-black polylysine coated plate (Costar) at 8000 cells/well/50 μl for 24 hours or 4000 cells/well for 48 hours in a humidified incubator (5% CO2 and 37° C.) in DMEM/F12 medium without selection agent. Prior to the experiment the cell culture medium was removed from the plates by inversion. A loading solution of 30 μl of Hank's balanced salt solution, 10 mM Hepes and 2.5 mM Probenicid at Ph 7.4 (Cat no. 311-520-VL, Wisent) with 2 μM calcium indicator dye (FLUO-3AM, Molecular Probes F14202) was added to each well. Plates were incubated at 37° C. for 60 minutes prior to start the experiment. The incubation was terminated by washing the cells four times in assay buffer, leaving a residual 25 μl buffer per well. Cell plates were then transferred to the FLIPR, ready for compound additions.
The day of experiment, acetylcholine and compounds were diluted in three-fold concentration range (10 points serial dilution) for addition by FLIPR instrument. For all calcium assays, a baseline reading was taken for 30 seconds followed by the addition of 12.5 μl (25 μl for hM1 and rM1) of compounds, resulting in a total well volume of 37.5 μl (50 μl for hM1 and rM1). Data were collected every 1.6 seconds for 300 seconds. For hM3 and hM5 an additional 12.5 μl of acetylcholine (2 nM final) was added at 300 seconds. After this addition of acetylcholine (producing a final volume of 50 μl), the FLIPR continued to collect data every 2 seconds for 240 seconds. The fluorescence emission was read using filter 1 (emission 520-545 nm) by the FLIPR on board CCD camera.
Calcium mobilization output data were calculated as the maximal relative fluorescence unit (RFU) minus the minimal value for both compound and agonist reading frame (except for hM1 and rM1 using only the maximal RFU). Data were analyzed using sigmoidal fits of a non-linear curve-fitting program (XLfit version 5.0.6 from ID Business Solutions Limited, Guildford, UK). All EC50 and IC50 values are reported as geometric means of ‘n’ independent experiments.

[2] = target: T2, human M2 receptor (human Muscarinic receptor subtype 2) (Homo sapiens, UniProt P08172); assay: hM2 receptor GTPγS binding; assay type: biochemical; conditions: CHO membranes expressing hM2, GTPγ35S binding; for EC50: read-out: hM2_EC50
T2 construct: purchased Perkin-Elmer RBHM2M; host or cells: Chinese hamster ovary cells (CHO), membranes
T2 sequence (P08172 1-466): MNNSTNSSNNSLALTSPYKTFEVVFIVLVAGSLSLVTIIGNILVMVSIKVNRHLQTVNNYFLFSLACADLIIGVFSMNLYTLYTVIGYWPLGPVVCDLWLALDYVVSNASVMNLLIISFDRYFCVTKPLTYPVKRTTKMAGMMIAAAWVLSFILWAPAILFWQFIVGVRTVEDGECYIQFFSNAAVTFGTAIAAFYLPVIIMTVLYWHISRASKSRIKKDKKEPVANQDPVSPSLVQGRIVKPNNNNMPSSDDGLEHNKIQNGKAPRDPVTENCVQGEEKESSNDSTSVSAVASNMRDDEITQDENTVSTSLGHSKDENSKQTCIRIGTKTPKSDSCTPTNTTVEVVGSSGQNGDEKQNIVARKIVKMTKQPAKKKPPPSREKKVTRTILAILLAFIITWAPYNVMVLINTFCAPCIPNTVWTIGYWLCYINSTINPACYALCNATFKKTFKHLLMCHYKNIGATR
Description: hM2 Receptor GTPyS Binding
Membranes produced from Chinese hamster ovary cells (CHO) expressing the cloned human M2 receptor (human Muscarinic receptor subtype 2, gene bank access NM_000739), were obtained from Perkin-Elmer (RBHM2M). The membranes were thawed at 37° C., passed 3 times through a 23-gauge blunt-end needle, diluted in the GTPγS binding buffer (50 mM Hepes, 20 mM NaOH, 100 mM NaCl, 1 mM EDTA, 5 mM MgCl2, pH 7.4, 100 μM DTT). The EC50, IC50 and Emax of the compounds of the invention were evaluated from 10-point dose-response curves (three fold concentration range) done in 60 μl in 384-well non-specific binding surface plate (Corning). Ten microliters from the dose-response curves plate (5× concentration) were transferred to another 384 well plate containing the following: 10 μg of hM2 membranes, 500 μg of Flashblue beads (Perkin-Elmer) and GDP in a 25 μl volume. An additional 15 μl containing 3.3× (55000 dpm) of GTPγ^35S (0.4 nM final) were added to the wells resulting in a total well volume of 50 μl. Basal and maximal stimulated GTPγ^35S binding was determined in absence and presence of 30 μM of acetylcholine agonist. The membranes/beads mix were pre-incubated for 15 minutes at room temperature with 25 μM GDP prior to distribution in plates (12.5 μM final). The reversal of acetylcholine-induced stimulation (2 μM final) of GTPγ^35S binding was used to assay the antagonist properties (IC50) of the compounds. The plates were incubated for 60 minutes at room temperature with shaking, then centrifuged at 2000 rpm for 5 minutes. The radioactivity (cpm) was counted in a Trilux (Perkin-Elmer).
Values of EC50, IC50 and Emax were obtained using sigmoidal fits of a non-linear curve-fitting program (XLfit version 5.0.6 from ID Business Solutions Limited, Guildford, UK) of percent-stimulated GTPγ^35S binding vs. log (molar ligand).
All EC50 and IC50 values are reported as geometric means of ‘n’ independent experiments. […] The IC50 was the concentration of the compound of the invention at which 50% inhibition of acetylcholine GTPγ^35S binding stimulation has been observed.

Structure (SMILES) | EC50 [1] [nM] | Emax [1] [%] | Emax [2] [%] | EC50 [2] [nM]
C=CCOC[C@@H]1CCCN(C[C@H]2CCCC[C@@H]2NC(=O)c2ccc(-n3ccnc3)nc2)C1 [N-[(1S,2R)-2-({(3R)-3-[(allyloxy)methyl]piperidin-1-yl}methyl)cyclohexyl]-6-(1H-imidazol-1-yl)nicotinamide] | 5 | 95 | 22 | 216
C=CCOCC1CCCN(C[C@@H]2CCCC[C@H]2NC(=O)c2ccc(CN3CCN(C)CC3)cc2)C1 (mixture of isomers) [Trans-(±)-N-[2-({3-[(Allyloxy)methyl]piperidin-1-yl}methyl)cyclohexyl]-4-[(4-methylpiperazin-1-yl)methyl]benzamide] | 49 | 80 | 19 | 390
O=C(N[C@H]1CCCC[C@@H]1CN1CCCCCC1)c1ccc(-n2cccn2)cc1 [N-[(1S,2R)-2-(azepan-1-ylmethyl)cyclohexyl]-4-(1H-pyrazol-1-yl)benzamide] | 130 | 70 | > 12 | > 30000
CCOC[C@@H]1CCCN(C[C@H]2CCCC[C@@H]2NC(=O)C2CCCCC2)C1 [N-((1S,2R)-2-{[(3R)-3-(ethoxymethyl)piperidin-1-yl]methyl}cyclohexyl)cyclohexanecarboxamide] | 157 | 75 | 30 | 1080
